This note sets out measurements from patent US11787785B2 (NOVARTIS AG, priority 2021, dated 2023).

This assay has as its target T1, WIZ protein (HiBit-WIZ fusion protein) (Homo sapiens, UniProt O95785+Q96SW2).
T1 construct: expressed in transfected cells
Kind of assay: Quantification of WIZ protein levels in HiBit tag fusion protein assay (WIZ HiBit assay in 293T cells). The assay is classed as cell-based. As to conditions: for Dmax at 25 µM / remaining activity at 25 µM: HEK-293T; for Dmax at 25 µM / % degradation of WIZ (100 − Amax): 100 − Amax, at 25 uM; for Dmax at 25 µM / remaining activity at 25 µM / % degradation of WIZ (100 − Amax) / WIZ Amax: 293T cells; for Dmax at 25 µM: read-out: % degradation of WIZ (100 − Amax); for remaining activity at 25 µM / WIZ Amax: DMSO-normalized, curve-fitted percentage of WIZ-HiBit remaining at 25 uM; for remaining activity at 25 µM: read-out: WIZ Amax; for DC50: WIZ HiBit assay in 293T cells, 10-point, 5-fold dose response, highest concentration 25 μM, about 18 hours, read-out: WIZ AC50. As to the method:
The HiBit system from Promega was used to develop high-throughput and quantitative assays to measure changes in WIZ protein levels in response to compounds. The HiBit tag was derived from a split Nanoluciferase and has the following protein sequence: […] (SEQ ID NO: 1). The complementary fragment of Nanoluciferase (known as LgBit, from Promega), was added to the HiBit tag to form an active Nanoluciferase enzyme whose activity can be precisely measured. In this way, the levels of a fusion protein with the HiBit tag can be quantified in cell lysates.
Lentiviral vectors, based on the Invitrogen™ pLenti6.2/V5 DEST backbone were constructed that places the HiBit tag upstream of WIZ and expressed the fusion protein from an HSVTK promotor.
To ensure moderate and consistent expression of the HiBit-WIZ fusion protein across all cells in the population, stable cell lines were constructed from cells harboring a single copy of the construct. Lentivirus packaged with the constructs were made using the ViraPower™ kit from Invitrogen™. 293T cells from ATCC (Catalog number: CRL-3216), were infected with the virus at low multiplicity of infection and selected by 5 μg/mL blasticidin in culture media for 2 weeks.
The levels of HiBit-WIZ tagged fusion proteins in compound-treated cell lines were measured as follows:
On day 1, cells were diluted to 1.0×10^6 cells/ml in normal growth medium. 20 μL of cell suspension were plated in each well of a solid white 384-well plate. Plates were incubated overnight in a 37° C. and 5% CO2 humidified tissue culture incubator.
On day 2, serial dilutions of compounds were made in 384-well plates. Compound plates were set up with DMSO in columns 1, 2, 23, 24, and 10-point compound dilution series in column 3-12 and column 13-22. 10 mM stock solution of compound were placed into column 3 or 13 and a 1:5 serial dilution was carried out until there was a 10-point dilution series per compound. 50 nL of diluted compounds were transferred into the plated cells by Echo® (Labcyte) acoustic transfer. The highest concentration of compound was 25 μM. Plates were incubated overnight (about 18 hours) in a 37° C. and 5% CO2 humidified tissue culture incubator.
On day 3, plates were removed from the incubator and allowed to equilibrate at room temperature for 60 minutes. HiBit substrate (Nano-Glo® HiBit Lytic Detection System, Promega Catalogue number: N3050) was added as described by the manufacturers protocols. Plates were incubated at room temperature for 30 minutes and luminescence was read using an EnVision® reader (PerkinElmer®). Data was analyzed and visualized using the Spotfire® software package.
WIZ Degradation Activity of Compounds (Table 1)
WIZ Amax reflects the DMSO-normalized, curve-fitted percentage of WIZ-HiBit remaining at 25 uM. It was calculated by normalizing […] controls to 100%, parametric curve fitting of the dose response data (10-point, 5-fold), followed by calculation of response at 25 uM using the fitted equation (nd=not determined).
(In general: HiBiT is a short tag that completes a luciferase, so light tracks the accessible tagged protein.)

T1 sequence (O95785 whole entry, the tested form may be a part): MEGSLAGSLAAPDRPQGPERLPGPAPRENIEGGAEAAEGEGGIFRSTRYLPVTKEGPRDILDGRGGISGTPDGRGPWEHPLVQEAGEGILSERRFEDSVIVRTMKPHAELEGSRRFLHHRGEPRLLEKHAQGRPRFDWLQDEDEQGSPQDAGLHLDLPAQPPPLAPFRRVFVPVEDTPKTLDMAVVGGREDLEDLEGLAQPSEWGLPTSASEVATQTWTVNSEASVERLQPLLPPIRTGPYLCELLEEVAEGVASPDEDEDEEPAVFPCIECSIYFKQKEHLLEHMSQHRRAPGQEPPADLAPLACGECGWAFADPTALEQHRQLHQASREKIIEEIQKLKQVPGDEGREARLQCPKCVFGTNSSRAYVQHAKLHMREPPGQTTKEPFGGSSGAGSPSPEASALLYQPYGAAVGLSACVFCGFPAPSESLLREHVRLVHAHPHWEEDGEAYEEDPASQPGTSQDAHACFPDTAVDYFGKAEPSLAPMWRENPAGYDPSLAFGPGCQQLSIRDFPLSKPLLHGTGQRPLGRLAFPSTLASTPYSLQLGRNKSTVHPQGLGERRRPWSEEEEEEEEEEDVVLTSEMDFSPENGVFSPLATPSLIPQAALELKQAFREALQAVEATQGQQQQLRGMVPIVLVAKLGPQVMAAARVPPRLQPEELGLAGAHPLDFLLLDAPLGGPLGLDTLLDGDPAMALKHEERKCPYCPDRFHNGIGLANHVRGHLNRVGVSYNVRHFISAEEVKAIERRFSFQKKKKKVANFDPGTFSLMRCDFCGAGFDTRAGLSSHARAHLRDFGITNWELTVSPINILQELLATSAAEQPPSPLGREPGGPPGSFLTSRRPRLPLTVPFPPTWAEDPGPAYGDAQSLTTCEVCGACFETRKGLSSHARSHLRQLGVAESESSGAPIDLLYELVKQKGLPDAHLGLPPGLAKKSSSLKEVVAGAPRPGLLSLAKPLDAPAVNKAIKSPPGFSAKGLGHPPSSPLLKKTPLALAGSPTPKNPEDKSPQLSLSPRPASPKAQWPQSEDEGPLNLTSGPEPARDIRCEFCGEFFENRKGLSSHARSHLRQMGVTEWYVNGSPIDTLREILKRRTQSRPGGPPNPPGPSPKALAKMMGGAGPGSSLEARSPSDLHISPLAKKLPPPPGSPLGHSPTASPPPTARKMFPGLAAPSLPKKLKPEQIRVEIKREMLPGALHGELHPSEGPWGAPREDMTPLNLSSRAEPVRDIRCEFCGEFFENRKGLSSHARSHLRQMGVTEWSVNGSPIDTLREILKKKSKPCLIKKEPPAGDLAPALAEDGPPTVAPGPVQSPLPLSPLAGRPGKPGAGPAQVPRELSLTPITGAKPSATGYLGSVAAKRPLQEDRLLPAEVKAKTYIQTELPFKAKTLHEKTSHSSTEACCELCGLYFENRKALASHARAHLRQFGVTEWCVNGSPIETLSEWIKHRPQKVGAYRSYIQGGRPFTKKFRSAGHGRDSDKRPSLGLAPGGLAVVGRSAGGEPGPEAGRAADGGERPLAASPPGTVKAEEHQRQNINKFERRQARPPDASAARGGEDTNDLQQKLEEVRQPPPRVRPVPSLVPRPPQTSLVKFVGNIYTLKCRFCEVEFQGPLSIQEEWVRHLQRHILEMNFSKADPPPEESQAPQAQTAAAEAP
T1 sequence (Q96SW2 whole entry, the tested form may be a part): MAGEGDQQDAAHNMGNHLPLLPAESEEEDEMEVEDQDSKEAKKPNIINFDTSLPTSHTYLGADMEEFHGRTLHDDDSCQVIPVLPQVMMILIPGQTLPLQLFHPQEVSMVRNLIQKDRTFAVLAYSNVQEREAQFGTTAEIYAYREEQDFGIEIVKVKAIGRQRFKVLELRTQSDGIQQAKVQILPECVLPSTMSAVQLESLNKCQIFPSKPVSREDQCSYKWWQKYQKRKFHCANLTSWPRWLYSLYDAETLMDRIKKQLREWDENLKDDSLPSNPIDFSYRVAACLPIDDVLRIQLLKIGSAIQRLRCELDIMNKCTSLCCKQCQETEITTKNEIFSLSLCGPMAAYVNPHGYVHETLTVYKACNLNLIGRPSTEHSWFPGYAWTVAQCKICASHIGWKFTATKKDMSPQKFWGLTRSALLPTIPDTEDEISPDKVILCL
T1 sequence (Q16531 whole entry partner, the tested form may be a part): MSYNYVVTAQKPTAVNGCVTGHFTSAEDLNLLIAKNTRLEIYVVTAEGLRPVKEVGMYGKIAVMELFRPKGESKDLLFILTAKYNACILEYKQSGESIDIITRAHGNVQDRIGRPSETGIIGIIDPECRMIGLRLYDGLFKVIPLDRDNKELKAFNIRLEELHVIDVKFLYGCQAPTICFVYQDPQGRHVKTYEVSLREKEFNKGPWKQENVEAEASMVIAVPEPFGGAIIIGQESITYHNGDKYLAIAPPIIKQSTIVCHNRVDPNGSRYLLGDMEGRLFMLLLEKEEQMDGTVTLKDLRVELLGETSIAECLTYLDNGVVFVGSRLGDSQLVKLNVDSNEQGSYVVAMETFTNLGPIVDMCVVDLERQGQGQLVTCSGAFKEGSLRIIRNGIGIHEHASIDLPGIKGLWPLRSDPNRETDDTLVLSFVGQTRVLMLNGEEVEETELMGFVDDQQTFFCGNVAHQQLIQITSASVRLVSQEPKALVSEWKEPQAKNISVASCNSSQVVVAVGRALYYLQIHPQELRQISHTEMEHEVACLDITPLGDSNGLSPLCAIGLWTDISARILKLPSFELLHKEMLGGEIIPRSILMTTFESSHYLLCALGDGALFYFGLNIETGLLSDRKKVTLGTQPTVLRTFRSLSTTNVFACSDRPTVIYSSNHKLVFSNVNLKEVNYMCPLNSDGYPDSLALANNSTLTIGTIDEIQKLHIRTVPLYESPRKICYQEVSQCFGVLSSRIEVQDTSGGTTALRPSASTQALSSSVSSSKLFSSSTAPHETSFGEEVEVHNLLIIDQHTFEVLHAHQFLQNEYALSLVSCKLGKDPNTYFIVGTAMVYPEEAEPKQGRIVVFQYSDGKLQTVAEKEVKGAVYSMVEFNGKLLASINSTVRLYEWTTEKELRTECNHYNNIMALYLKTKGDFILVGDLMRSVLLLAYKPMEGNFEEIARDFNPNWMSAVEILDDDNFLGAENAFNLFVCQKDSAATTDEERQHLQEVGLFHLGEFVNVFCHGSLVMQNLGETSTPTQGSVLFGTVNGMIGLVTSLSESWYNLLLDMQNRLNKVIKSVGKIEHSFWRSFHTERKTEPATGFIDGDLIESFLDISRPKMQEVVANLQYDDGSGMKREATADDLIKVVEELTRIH

With `CC(C)CN1CC[C@H](Cc2ccn3ncc(N4CCC(=O)NC4=O)c3c2)C[C@@H]1C(F)(F)F` (relative stereo) [Example 312, (cis)-1-(5-((1-isobutyl-2-(trifluoromethyl)piperidin-4-yl)methyl)pyrazolo[1,5-a]pyridin-3-yl)dihydropyrimidine-2,4(1H,3H)-dione], the Dmax at 25 µM was 44%, the remaining activity at 25 µM worked out at 56% and the DC50 is 370 nM.

Take `C[C@H]1C[C@@H](Cc2ccn3ncc(N4CCC(=O)NC4=O)c3c2)CCN1CC1CCCCC1` (single isomer, unassigned) [Example 71]: the Dmax at 25 µM was found to be 85%, the remaining activity at 25 µM turned out to be 15% and the DC50 came to 7 nM.

Consider `C[C@H]1CC(F)(Cc2ccn3ncc(N4CCC(=O)NC4=O)c3c2)CCN1CC1CCC(F)(F)CC1` (single isomer, unassigned) [Example 308], for which the Dmax at 25 µM stood at 77%, the remaining activity at 25 µM was 23% and the DC50 was determined as 44 nM.

Take `C[C@H]1CC(F)(Cc2ccn3ncc(N4CCC(=O)NC4=O)c3c2)CCN1CC1CCC(F)(F)CC1` (single isomer, unassigned) [Example 309]: the “% degradation of WIZ (100 − Amax)” value came out at 62%, the “WIZ Amax” value is on record as 38% and the DC50 is 56 nM.

Turning to `C[C@H]1CC(F)(Cc2ccn3ncc(N4CCC(=O)NC4=O)c3c2)CCN1C1COC1` (single isomer, unassigned) [Example 310], the Dmax at 25 µM amounted to 73%, the remaining activity at 25 µM came out at 27% and the DC50 worked out at 150 nM.

As to `C[C@H]1CC(F)(Cc2ccn3ncc(N4CCC(=O)NC4=O)c3c2)CCN1C1COC1` (single isomer, unassigned) [Example 311], the “% degradation of WIZ (100 − Amax)” value stood at 78%, the “WIZ Amax” value is on record as 22% and the DC50 stood at 310 nM.

On to `O=C1CCN(c2cnn3ccc(CC4CCN(CC5CCCCC5)CC4)cc23)C(=O)N1` [Example 1, 1-(5-((1-(cyclohexylmethyl)piperidin-4-yl)methyl)pyrazolo[1,5-a]pyridin-3-yl)dihydropyrimidine-2,4(1H,3H)-dione], for which the Dmax at 25 µM came out at 91%, the remaining activity at 25 µM amounted to 9% and the DC50 came to 20 nM.

Consider `O=C1CCN(c2cnn3ccc(CC4CCN(CC5CCCC5)CC4)cc23)C(=O)N1` [Example 2, 1-(5-((1-(cyclopentylmethyl)piperidin-4-yl)methyl)pyrazolo[1,5-a]pyridin-3-yl)dihydropyrimidine-2,4(1H,3H)-dione], for which the Dmax at 25 µM worked out at 91%, the remaining activity at 25 µM was determined as 9% and the DC50 was 23 nM.

Regarding `O=C1CCN(c2cnn3ccc(CC4CCN(CC5CCOCC5)CC4)cc23)C(=O)N1` [Example 3, 1-(5-((1-((tetrahydro-2H-pyran-4-yl)methyl)piperidin-4-yl)methyl)pyrazolo[1,5-a]pyridin-3-yl)dihydropyrimidine-2,4(1H,3H)-dione], the Dmax at 25 µM amounted to 90%, the remaining activity at 25 µM turned out to be 10% and the DC50 came out at 20 nM.

As to `O=C1CCN(c2cnn3ccc(CC4CCN(CC5CCC(F)(F)CC5)CC4)cc23)C(=O)N1` [Example 4, 1-(5-((1-((4,4-difluorocyclohexyl)methyl)piperidin-4-yl)methyl)pyrazolo[1,5-a]pyridin-3-yl)dihydropyrimidine-2,4(1H,3H)-dione], the Dmax at 25 µM was determined as 90%, the remaining activity at 25 µM came to 10% and the DC50 amounted to 5 nM.

Turning to `O=C1CCN(c2cnn3ccc(CC4CCN(CC5CC5)CC4)cc23)C(=O)N1` [Example 5, 1-(5-((1-(cyclopropylmethyl)piperidin-4-yl)methyl)pyrazolo[1,5-a]pyridin-3-yl)dihydropyrimidine-2,4(1H,3H)-dione], the Dmax at 25 µM was determined as 89%, the remaining activity at 25 µM turned out to be 11% and the DC50 amounted to 204 nM.

For `O=C1CCN(c2cnn3ccc(CC4CCN(CCC5CCCCC5)CC4)cc23)C(=O)N1` [Example 6, 1-(5-((1-(2-cyclohexylethyl)piperidin-4-yl)methyl)pyrazolo[1,5-a]pyridin-3-yl)dihydropyrimidine-2,4(1H,3H)-dione], the Dmax at 25 µM was found to be 89%, the remaining activity at 25 µM turned out to be 11% and the DC50 is 13 nM.

As for `O=C1CCN(c2cnn3ccc(CC4CCN(CC5CCCOC5)CC4)cc23)C(=O)N1` (stereo not drawn) [Example 7, 1-(5-((1-((tetrahydro-2H-pyran-3-yl)methyl)piperidin-4-yl)methyl)pyrazolo[1,5-a]pyridin-3-yl)dihydropyrimidine-2,4(1H,3H)-dione], the Dmax at 25 µM is 86%, the remaining activity at 25 µM is 14% and the DC50 amounted to 23 nM.

For the molecule `O=C1CCN(c2cnn3ccc(CC4CCN(CC5CCCCCC5)CC4)cc23)C(=O)N1` [Example 8, 1-(5-((1-(cycloheptylmethyl)piperidin-4-yl)methyl)pyrazolo[1,5-a]pyridin-3-yl)dihydropyrimidine-2,4(1H,3H)-dione], the Dmax at 25 µM came out at 86%, the remaining activity at 25 µM amounted to 14% and the DC50 worked out at 8 nM.

For the molecule `CCC(C)CN1CCC(Cc2ccn3ncc(N4CCC(=O)NC4=O)c3c2)CC1` (stereo not drawn) [Example 9, 1-(5-((1-(2-methylbutyl)piperidin-4-yl)methyl)pyrazolo[1,5-a]pyridin-3-yl)dihydropyrimidine-2,4(1H,3H)-dione], the Dmax at 25 µM stood at 84%, the remaining activity at 25 µM stood at 16% and the DC50 worked out at 31 nM.

As for `CC(CN1CCC(Cc2ccn3ncc(N4CCC(=O)NC4=O)c3c2)CC1)C1CCCCC1` (stereo not drawn) [Example 10, 1-(5-((1-(2-cyclohexylpropyl)piperidin-4-yl)methyl)pyrazolo[1,5-a]pyridin-3-yl)dihydropyrimidine-2,4(1H,3H)-dione], the Dmax at 25 µM is 84%, the remaining activity at 25 µM turned out to be 16% and the DC50 came to 4 nM.

For `O=C1CCN(c2cnn3ccc(CC4CCN(CCC5CCOCC5)CC4)cc23)C(=O)N1` [Example 11, 1-(5-((1-(2-(tetrahydro-2H-pyran-4-yl)ethyl)piperidin-4-yl)methyl)pyrazolo[1,5-a]pyridin-3-yl)dihydropyrimidine-2,4(1H,3H)-dione], the Dmax at 25 µM stood at 84%, the remaining activity at 25 µM worked out at 16% and the DC50 was 55 nM.

With `CCCC(CCC)N1CCC(Cc2ccn3ncc(N4CCC(=O)NC4=O)c3c2)CC1` [Example 12, 1-(5-((1-(heptan-4-yl)piperidin-4-yl)methyl)pyrazolo[1,5-a]pyridin-3-yl)dihydropyrimidine-2,4(1H,3H)-dione], the Dmax at 25 µM came to 84%, the remaining activity at 25 µM was 16% and the DC50 came to 51 nM.

As for `O=C1CCN(c2cnn3ccc(CC4CCN(CCC5CCC5)CC4)cc23)C(=O)N1` [Example 13, 1-(5-((1-(2-cyclobutylethyl)piperidin-4yl)methyl)pyrazolo[1,5-a]pyridin-3-yl)dihydropyrimidine-2,4(1H,3H)-dione], the Dmax at 25 µM was determined as 84%, the remaining activity at 25 µM stood at 16% and the DC50 stood at 19 nM.

For `O=C1CCN(c2cnn3ccc(CC4CCN(CC5CCOC5)CC4)cc23)C(=O)N1` (stereo not drawn) [Example 14, 1-(5-((1-((tetrahydrofuran-3-yl)methyl)piperidin-4-yl)methyl)pyrazolo[1,5-a]pyridin-3-yl)dihydropyrimidine-2,4(1H,3H)-dione], the Dmax at 25 µM came out at 84%, the remaining activity at 25 µM was 16% and the DC50 was found to be 28 nM.

Regarding `O=C1CCN(c2cnn3ccc(CC4CCN(CC5CCCO5)CC4)cc23)C(=O)N1` (stereo not drawn) [Example 15, 1-(5-((1-((tetrahydrofuran-2-yl)methyl)piperidin-4-yl)methyl)pyrazolo[1,5-a]pyridin-3-yl)dihydropyrimidine-2,4(1H,3H)-dione], the Dmax at 25 µM amounted to 71%, the remaining activity at 25 µM was found to be 29% and the DC50 was determined as 523 nM.
